Literature values as cited in US20230157586A1 (United States Government as Represented by the Department …, priority 2021, published 2023).
Substitutions are numbered along the chain they refer to.

Assays:
[1] = molecular target: T1, corticosteroid binding globulin (CBG) (Homo sapiens, UniProt P08185); conditions: 37° C.; same for each subject
T1 sequence (P08185 23-405): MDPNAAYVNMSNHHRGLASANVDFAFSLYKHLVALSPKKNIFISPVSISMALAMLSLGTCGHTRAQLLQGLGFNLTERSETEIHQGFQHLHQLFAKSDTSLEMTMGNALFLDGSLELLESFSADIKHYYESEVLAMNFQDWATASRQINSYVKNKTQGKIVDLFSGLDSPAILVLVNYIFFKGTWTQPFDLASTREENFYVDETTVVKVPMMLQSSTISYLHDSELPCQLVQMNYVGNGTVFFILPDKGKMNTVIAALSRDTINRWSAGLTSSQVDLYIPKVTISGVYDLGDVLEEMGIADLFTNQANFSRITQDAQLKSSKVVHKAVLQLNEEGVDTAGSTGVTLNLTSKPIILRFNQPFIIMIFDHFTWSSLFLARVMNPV

albumin = albumin (Homo sapiens, UniProt P02768); conditions: 37° C.; same for each subject
[2] = molecular target: T2, mutant CBG protein (GLy237Val substitution, SERPINA6) (Homo sapiens, UniProt P08185, G259V); conditions: previously reported; higher equilibrium dissociation constant KD
T2 sequence (P08185 23-405 G259V): T1 sequence (P08185 23-405) with G237V

Chain of albumin (P02768 25-609): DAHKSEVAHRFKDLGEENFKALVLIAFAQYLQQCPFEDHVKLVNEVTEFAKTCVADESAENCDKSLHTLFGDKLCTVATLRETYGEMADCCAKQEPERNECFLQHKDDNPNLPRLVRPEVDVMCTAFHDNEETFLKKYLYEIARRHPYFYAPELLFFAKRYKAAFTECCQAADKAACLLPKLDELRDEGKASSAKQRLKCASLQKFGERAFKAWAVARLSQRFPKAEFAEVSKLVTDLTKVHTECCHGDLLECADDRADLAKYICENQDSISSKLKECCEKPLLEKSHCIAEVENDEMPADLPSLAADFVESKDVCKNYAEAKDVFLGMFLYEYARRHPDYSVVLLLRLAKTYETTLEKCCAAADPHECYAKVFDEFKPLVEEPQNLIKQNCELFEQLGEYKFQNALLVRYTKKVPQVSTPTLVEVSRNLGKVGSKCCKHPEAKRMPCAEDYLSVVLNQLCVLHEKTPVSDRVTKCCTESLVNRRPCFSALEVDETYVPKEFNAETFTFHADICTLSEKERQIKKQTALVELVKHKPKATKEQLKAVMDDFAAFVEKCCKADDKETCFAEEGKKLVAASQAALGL

κ1^C association rate constant (on-rate), CBG [1]: 3.62e+07 M/s | κ−1^C dissociation rate constant (off-rate), CBG [1]: 0.88 s⁻¹ | κ1^A association rate constant (on-rate), albumin (albumin): 8950 M/s | κ−1^A dissociation rate constant (off-rate), albumin (albumin): 2.2 s⁻¹
Structure (SMILES): C[C@]12CCC(=O)C=C1CC[C@@H]1[C@@H]2[C@@H](O)C[C@@]2(C)[C@H]1CC[C@]2(O)C(=O)CO [cortisol]
cortisol binding affinity of mutant CBG compared to wild type CBG protein [2]: markedly decreased cortisol binding affinity
